From BigSolDB 2.1

CC(=O)N[C@@H](Cc1ccc(O)cc1)C(=O)O
solubility (mole fraction)
Settings	283.15 K	288.15 K	293.15 K	298.15 K	303.15 K	308.15 K	313.15 K	318.15 K	323.15 K
in acetone	0.106	0.116	0.132	0.136	0.145	0.152	0.166	0.181	0.197
in acetonitrile	0.00301	0.00353	0.00436	0.00526	0.0064	0.00795	0.00988	0.0129	0.017
in dimethyl carbonate	0.00114	0.00122	0.00127	0.0015	0.00224	0.00267	0.00307	0.00373	0.00404
in ethyl acetate	0.00383	0.00412	0.00477	0.00507	0.00577	0.00655	0.0073	0.00849	0.0102
in isobutanol	0.0349	0.0378	0.0468	0.0522	0.06	0.0683	0.0777	0.0853	0.0973
in isopentanol	0.0363	0.0394	0.0487	0.05	0.0568	0.0634	0.0635	0.0749	0.0807
in isopropanol	0.0772	0.0942	0.105	0.111	–	–	–	–	–
